A short description of series [1]: Nail permeability test through human nail using Franz cell. The class given is in vitro ADME. Conditions: 5% in propylene glycol:ethanol (1:4), 32° C. Here is the method: Permeability through human nail was measured by the method shown below using Franz cell. • Test Preparation: A test compound was dissolved in a propylene glycol:ethanol (1:4) mixed solution at a concentration of 5% to give a test preparation. As control compounds terbinafine and amorolfine were used. • (1) Human nail (thickness 300-500 μm) was fixed using a nail adapter for Franz cell, and mounted on Franz cell. • (2) The receptor chamber of the Franz cell was filled with phosphate buffer, and placed in a thermostatic chamber at 32° C. • (3) A test preparation was applied to the aforementioned human nail at 61 μL/cm^2, after which a receptor solution was collected over days, and the concentration of the test compound in the receptor was measured by a liquid chromatography mass spectrometry method (LC/MS/MS). The cumulative amount of drug permeation (μg/cm^2) was calculated from the measured drug concentration in the receptor. A cumulative amount of drug permeation relative to the time after start of the test was plotted and the slope at final 4 time points was taken as Flux (μg/cm^2/day). The abbreviations in the Table mean the following compounds • TBF: terbinafine • AMF: amorolfine

For series [2], the system named is Trichophyton mentagrophytes SM-110. The experiment in a line: Antifungal activity evaluation test: minimum inhibitory concentration (MIC), broth dilution by reference to CLSI M38-A2. It is filed as cell-based. To be noted: SM110, read-out: MIC (T. menta.). The method, boiled down:
(§1)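 MIC read visually as lowest concentration inhibiting growth by at least 80% relative to control after 4 days at 35° C. Trichophyton strains inoculated at 2×10^3 cells/mL final in MOPS-buffered RPMI 1640 (pH 7.0); compounds as 2-fold DMSO series, CLSI M38-A2 basis.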

The test system of series [3] is Trichophyton rubrum KD-1130. Described as above. The class given is cell-based. Conditions: KD1130, read-out: MIC (T. rubrum). The method, boiled down: as §1

The structures appear in SMILES notation. Bounds are passed on as bounds.

In the case of `CCC(C)(C)c1ccc(CC(C)CN2C[C@@H](C)O[C@@H](C)C2)cc1` (stereo partly shown) [AMF, amorolfine, reference compound], the “nail permeability (Flux)” value in series [1] is listed as “D (D: <0.001)”. Further, the minimum inhibitory concentration (MIC) in series [2] and in series [3] was not above 0.1 µg/mL each time.
`COCC(F)(F)c1ccc(Oc2ncccc2-c2cc(OC)ccc2F)cn1` [I-458]: the MIC in series [2] and in series [3] was not above 0.1 µg/mL throughout.
For the compound `COc1ncccc1-c1cccnc1Oc1ccc(C)cc1` [I-459], the MIC in series [2] and in series [3] was not above 0.1 µg/mL throughout.
Turning to `COCC(F)(F)c1ccc(Oc2ncccc2-c2ccc(OC)nc2OC)cn1` [I-460], the minimum inhibitory concentration (MIC) in series [2] and in series [3] was not above 0.1 µg/mL each time.
Take `Cc1cc(Oc2ncccc2-c2cccc3ccnn23)cnc1C(F)(F)F` [I-461]: the MIC in series [2] and in series [3] was not above 0.1 µg/mL in each case.
With `Cc1cc(Oc2ncccc2-c2cccc3ccnn23)ccc1C(F)F` [I-462], the MIC in series [2] and in series [3] was not above 0.1 µg/mL throughout.
On to `CN(C/C=C/C#CC(C)(C)C)Cc1cccc2ccccc12` [TBF, terbinafine, reference compound], for which the “nail permeability (Flux)” value in series [1] is listed as “D (D: <0.001)”. Besides, the MIC in series [2] and in series [3] was not above 0.1 µg/mL in each case.

The record behind these values is US10647675B2 (priority 2015, dated 2020).
